What was measured:
[1] = tested on: mice having cerebral anoxia experimentally induced under the load of hypobaric hypoxia; assay: Survival time of mice with cerebral anoxia induced under hypobaric hypoxia (Test 1); format: in vivo; settings: 100 mg/kg intraperitoneally, 30 minutes before evacuation to 190 mmHg; 6 ddy mice per group; untreated control group = 100
Protocol: ddy Mice (6 weeks old, body weight: 25-30 g, each group comprising 6 ddy mice) were administered intraperitoneally with the compounds of the present invention, respectively. Each of the tested compounds of this invention had been beforehand dissolved in redistilled water and the aqueous solution was administered in an amount of 0.1 ml per 10 g body weight. Thirty minutes after the administration, the mice were individually placed in hermetic transparent containers. The containers were rapidly evacuated to 190 mmHg by means of a vacuum pump. Time was measured from the initiation of the evacuation to the death of each mouse due to respiratory failure. That time was recorded as the survival time (seconds) of mice.
The ratios of the survival time of the groups of the treated mice which received the administration of the tested compounds of this invention divided by the survival time of a control group (untreated) which received no administration of the drug were calculated.

ddy mice = settings: mouse, in vivo
Protocol: The toxicity of the compounds of the general formula (I) usable in this invention was evaluated by using N,N-di-isopropyloxamic acid as one example.

Row | SMILES | Survival time ratio (control group: 100) [1] | toxicity (survival of mice) (ddy mice)
1 | C=CCN(CC=C)C(=O)C(=O)O [N,N-di-allyloxamic acid] | 187 | 
2 | CC(C)N(C(=O)C(=O)O)C(C)C [N,N-di-isopropyl-oxamic acid, N,N-di-isopropyloxamic acid] | 155 | all the mice tolerated it and remained alive
3 | CCCN(CCC)C(=O)C(=O)O [N,N-di-n-propyl-oxamic acid, N,N-di-n-propyloxamic acid] | 181 | 
4 | CCCCN(CC)C(=O)C(=O)O [N-ethyl-N-butyl-oxamic acid, N-ethyl-N-n-butyloxamic acid] | 116 | 
5 | CCCN(CC)C(=O)C(=O)O [N-ethyl-N-n-propyl-oxamic acid, N-ethyl-N-n-propyloxamic acid] | 166 | 

Reference: patent EP0350260A2, “New oxamic acid compounds and pharmaceutical composition for use in improvement of damaged cerebral functions of brain” (MEIJI SEIKA KAISHA LTD., priority 1988, dated 1990)
